ChEMBL document CHEMBL5316291 (J Med Chem, 2023)
Active and inactive are the calls of the source. No cut-off for these calls is given here.

Assays:
[1] = molecular target: T1, Poly [ADP-ribose] polymerase tankyrase-2 (Homo sapiens, UniProt Q9H2K2); assay: Inhibition of human recombinant N-terminal GST-tagged PARP5b (667 to 1166 end residues) expressed in baculovirus infected Sf9 cells expression system incubated for 1 hr by ELISA assay
T1 sequence (Q9H2K2 whole entry): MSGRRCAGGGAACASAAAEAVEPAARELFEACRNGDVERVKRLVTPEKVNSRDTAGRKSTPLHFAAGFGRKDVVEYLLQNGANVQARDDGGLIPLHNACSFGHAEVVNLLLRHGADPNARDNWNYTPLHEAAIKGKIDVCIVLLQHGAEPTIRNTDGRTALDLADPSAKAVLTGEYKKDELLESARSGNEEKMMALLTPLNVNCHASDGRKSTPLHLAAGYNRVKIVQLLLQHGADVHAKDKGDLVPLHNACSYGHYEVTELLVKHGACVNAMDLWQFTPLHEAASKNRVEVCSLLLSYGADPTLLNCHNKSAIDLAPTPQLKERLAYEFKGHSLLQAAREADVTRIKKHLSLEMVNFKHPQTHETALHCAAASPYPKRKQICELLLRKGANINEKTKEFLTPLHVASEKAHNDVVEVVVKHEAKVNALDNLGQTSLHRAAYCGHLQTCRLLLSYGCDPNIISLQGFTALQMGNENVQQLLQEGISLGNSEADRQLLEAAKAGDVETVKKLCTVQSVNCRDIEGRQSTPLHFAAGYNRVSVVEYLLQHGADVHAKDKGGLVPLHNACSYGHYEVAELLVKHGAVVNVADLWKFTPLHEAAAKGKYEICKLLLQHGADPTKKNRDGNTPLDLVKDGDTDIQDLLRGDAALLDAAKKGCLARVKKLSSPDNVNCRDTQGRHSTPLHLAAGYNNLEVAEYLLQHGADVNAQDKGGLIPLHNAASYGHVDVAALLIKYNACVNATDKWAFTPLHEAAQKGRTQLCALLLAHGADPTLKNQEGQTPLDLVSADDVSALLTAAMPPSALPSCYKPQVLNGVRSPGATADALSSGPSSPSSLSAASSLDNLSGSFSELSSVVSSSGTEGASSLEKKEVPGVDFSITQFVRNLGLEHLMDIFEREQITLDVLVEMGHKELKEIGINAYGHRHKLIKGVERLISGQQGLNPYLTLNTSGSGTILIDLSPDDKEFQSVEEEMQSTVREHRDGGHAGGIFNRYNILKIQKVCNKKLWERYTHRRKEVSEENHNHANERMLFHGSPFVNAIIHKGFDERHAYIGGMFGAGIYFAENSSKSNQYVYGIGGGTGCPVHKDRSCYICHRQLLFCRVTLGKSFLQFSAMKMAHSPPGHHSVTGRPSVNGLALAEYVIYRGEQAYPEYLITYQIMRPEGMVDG

[2] = molecular target: T2, Protein mono-ADP-ribosyltransferase PARP12 (Homo sapiens, UniProt Q9H0J9); assay: Inhibition of human recombinant N-terminal GST-tagged PARP12 (500 to 701 end residues) expressed in baculovirus infected Sf9 cells expression system incubated for 1 hr by ELISA assay
T2 sequence (Q9H0J9 whole entry): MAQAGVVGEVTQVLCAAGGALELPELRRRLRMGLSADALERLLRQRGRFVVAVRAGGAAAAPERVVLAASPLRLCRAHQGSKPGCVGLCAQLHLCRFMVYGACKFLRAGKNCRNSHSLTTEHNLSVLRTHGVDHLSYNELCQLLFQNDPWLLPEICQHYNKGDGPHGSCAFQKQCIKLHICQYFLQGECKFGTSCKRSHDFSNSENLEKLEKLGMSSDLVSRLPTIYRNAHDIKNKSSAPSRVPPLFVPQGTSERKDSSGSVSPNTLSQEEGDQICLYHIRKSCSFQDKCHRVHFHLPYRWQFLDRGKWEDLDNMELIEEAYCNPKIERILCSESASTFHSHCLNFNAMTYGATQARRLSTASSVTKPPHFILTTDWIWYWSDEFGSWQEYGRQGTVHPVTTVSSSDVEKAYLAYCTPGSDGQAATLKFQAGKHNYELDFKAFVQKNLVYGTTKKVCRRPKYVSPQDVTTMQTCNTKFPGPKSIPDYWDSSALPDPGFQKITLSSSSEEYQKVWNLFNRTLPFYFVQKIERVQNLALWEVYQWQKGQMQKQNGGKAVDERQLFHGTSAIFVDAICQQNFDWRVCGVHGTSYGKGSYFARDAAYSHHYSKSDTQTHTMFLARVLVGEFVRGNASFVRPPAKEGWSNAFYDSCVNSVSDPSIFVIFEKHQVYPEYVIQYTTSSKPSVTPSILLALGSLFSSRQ

[3] = Tmax in ICR mouse at 1 mg/kg, iv measured upto 24 hrs by LC-MS/MS analysis; assay type: ADME, organism-based; conditions: in vivo
[4] = Apparent volume of distribution in ICR mouse at 10 mg/kg, po measured upto 24 hrs by LC-MS/MS analysis; assay type: ADME, organism-based; conditions: in vivo
[5] = Clearance in ICR mouse at 10 mg/kg, po measured upto 24 hrs by LC-MS/MS analysis; assay type: ADME, organism-based; conditions: in vivo
[6] = Toxicity in BALB/c mouse implanted with mouse CT26 cells assessed as change in body weight at 1000 mg/kg, po measured upto 7 days; assay type: organism-based; conditions: in vivo, 168 h, time < 7 day
[7] = test system: CT26; assay: Antitumor activity against mouse CT26 cells xenografted in BALB/c mouse assessed as tumor growth inhibition at 100 mg/kg, po bid measured for 14 days; assay type: functional; conditions: CT26, 336 h, time 14 day, read-out: TGI
[8] = test system: CT26; assay: Antitumor activity against mouse CT26 cells implanted in BALB/c mouse assessed as tumor cell contraction at 25 to 100 mg/kg, po bid measured for 14 days by hematoxylin and eosin staining based fluorescence microscopic analysis; assay type: functional, organism-based; conditions: dose 25-100 mg/kg, time 14.0 day
[9] = test system: CT26; assay: Antitumor activity against mouse CT26 cells implanted in BALB/c mouse assessed as nuclear chromatin margination at 25 to 100 mg/kg, po bid measured for 14 days by hematoxylin and eosin staining based fluorescence microscopic analysis; assay type: functional, organism-based; conditions: dose 25-100 mg/kg, time 14.0 day
[10] = test system: CT26; assay: Antitumor activity against mouse CT26 cells implanted in po dosed BALB/c mouse assessed as increase in IFN-beta levels measured after 14 days by RT-qPCR analysis; assay type: functional, organism-based; conditions: dose 25-100 mg/kg, time 14.0 day
[11] = test system: CT26; assay: Antitumor activity against mouse CT26 cells implanted in po dosed BALB/c mouse assessed as increase in CXCL10 levels at 100 mg/kg measured after 14 days by RT-qPCR analysis; assay type: functional, organism-based; conditions: time 14.0 day
[12] = test system: CT26; assay: Antitumor activity against mouse CT26 cells implanted in BALB/c mouse assessed as increase in infiltration of CD3 positive CD4 positive T lymphocytes in tumors at 50 mg/kg, po measured after 14 days by flow cytometry (reference value: 7.95%); assay type: functional; conditions: time 14 day
[13] = test system: CT26; assay: cells; conditions: Mus musculus, CT26, 144 h

IC50 [1]: 227 nM
IC50 [2]: 453 nM
Tmax [3]: 4.8 min
Vz [4]: 4.5836 L/kg
CL/F [5]: 30.3 mL/min/kg
IC50 [13]: 19500 nM
Compound: C[C@@H](CN1CC(C(=O)N2CCN(c3ncc(C(F)(F)F)cn3)CC2)C1)Nc1cn[nH]c(=O)c1C(F)(F)F
Activity [6]: Non-Toxic
inhibition in vivo at 100 mg/kg [7]: 67%
Activity [8]: Active
Activity [9]: Active
Activity [10]: Dose-Dependent Effect
Activity [11]: Active
Activity [12]: 63.1%
